From patent US8236754B2, “Methods for improving the structure and function of arterioles” (The Regents of the University of California, priority 2004, dated 2012)
Entries after “also recorded” stand apart in the source; their conditions may differ. Non-standard residues stand in square brackets, D forms with d.

Columns and labels:
[1] = system: facial artery of LDL receptor null mice; assay: Facial artery ring vasoreactivity, acetylcholine relaxation after oral treatment; type: in vivo; conditions: Western diet, 1 mg/mL in drinking water, six weeks
apoe null mice = conditions: oral DMPC; cited from earlier work
mouse facial artery = conditions: published studies; cited from earlier work
[2] = system: brain arterioles of LDL receptor null mice; assay: Brain arteriolar wall thickness and lumen diameter by morphometry on H&E sections; type: in vivo; conditions: Western diet 6 weeks, 300 μg/mL in drinking water, D-4F vs scrambled D-4F
Method: Female wild-type and LDL receptor null C57BL/6 mice were from Jackson Laboratories (Bar Harbour, Me.). The mice were maintained on a chow diet (Ralston Purina) prior to administration of a Western diet (Teklad/Harlan, Madison Wis., diet No. 88137; 42% fat, 0.15% cholesterol, w/w). For studies of brain arterioles the mice were anesthetized with intramuscular ketamine (100 mg/kg) and acepromazine (2.5 mg/kg) and the heart was perfused via the left ventricle with 25 mL phosphate buffered saline (PBS) containing heparin (10 U/mL) followed by 100 mL of 4% paraformaldehyde (PFA) in PBS at pH 7.4 as described by Fernagut et al. (Fernagut et al. (2002) Neuroscience, 114: 1005-1017; Fernagut et al. (2004) Exp Neurol., 185: 47-62). Brains were quickly removed and stored for 24 hrs in 4% PFA at 4° C. and then transferred to 10% sucrose in PBS (pH 7.4) and left until they sank to the bottom of the solution. The right half of the brains were embedded in OCT (Tissue-Tek; Miles Laboratories Ltd, Elkhart Ind.) and frozen in isopentane at −40° C. and stored at −80° C. until sectioned in a cryostat at −20° C. The frozen brain was cut into 8 μm sections coronally to include the underlying white matter and stained with hematoxylin-eosin (H&E) and for smooth muscle α-actin (Serotec, Raleigh, N.C.). […]
(§1) Morphometry was performed to determine vascular wall thickness for all arterioles that were distended and perpendicularly cross-sectioned. […] A minimum of 10 arteries from each diameter group was examined in the cortical area and the deep white matter regions from each brain, and the wall thickness and wall to lumen ratios determined. The ratio of immunoreactive media thickness to the internal diameter of each vessel was assessed in sections immunostained for smooth muscle α-actin. […] Inter-observer variation was determined by having the three investigators measure the same 20 arterioles for wall thickness and lumen diameter and calculate the wall to lumen ratio. […]

[3] = Plasma lipoprotein and lipid levels; type: in vivo, mice
Method: Plasma lipoprotein and lipid levels were determined as described previously (Navab et al. (2004) Circulation, 109:r120-r125; Navab et al. (2005) Arterioscler Thromb Vasc Biol., 25: 1-7).

LDL receptor null mice = assay: T-maze continuous alternation task (T-CAT), spatial memory; type: in vivo
Method: T-maze continuous alternation task (T-CAT) testing took place daily between 9 A.M. and 4 P.M. and was performed by one investigator unaware of the treatment groups. The mice were delivered to the testing room two hours prior to behavioral studies to allow familiarization with the extra-maze visual cues of the room. The T-maze apparatus used in our studies is identical to the one described by Gerlai et al. (Gerlai (1998) Behavioural Brain Research, 95: 91-101) and was made of transparent acrylic walls with a black acrylic bottom. The dimensions of start and goal arms were: length 75 cm, width 12 cm and height 20 cm. The maze was equipped with three removable guillotine doors that could be operated by manual remote control. The testing room was illuminated by ceiling and floor lights and a fan provided a constant background noise. The T-maze was separated from the investigator by a black curtain and the movement of the mice in the maze was observed on a TV monitor and videotaped. After each individual mouse the T-maze was carefully cleaned with Windex spray and dried with paper towels. The T-maze continuous alternation task (T-CAT) limits the handling of mice and permits their exploratory behavior to be carried out undisturbed. The procedure used in this study is identical to that described by Gerlai et al. (Id.) and consisted of one forced and 14 free choice trials. Consecutive choices made by the mice were measured and the alternation rate during the 14 free choice trials was calculated (0%-no alternation, 100%-alternation at each trial, 50%-random choice). The time (in seconds) needed to complete the 15 trials was recorded and analyzed. The T-CAT testing was continuously registered by a video tracking system (SD Instruments Inc., San Diego, Calif.) and stored on a computer. Statistics were performed using StatView software (SAS Institute, Cary, N.C.)

LDL lipid hydroperoxides = conditions: mice, oral D-4F, without changing plasma lipid levels; cited from earlier work
[4] = system: brain arteriolar smooth muscle α-actin; assay: Brain arteriolar smooth muscle α-actin immunostaining, wall to lumen ratio; type: in vivo; conditions: LDL receptor null mice, Western diet 6 weeks, 300 μg/mL in drinking water; D-4F vs scrambled D-4F
Method: Female wild-type and LDL receptor null C57BL/6 mice were from Jackson Laboratories (Bar Harbour, Me.). The mice were maintained on a chow diet (Ralston Purina) prior to administration of a Western diet (Teklad/Harlan, Madison Wis., diet No. 88137; 42% fat, 0.15% cholesterol, w/w). For studies of brain arterioles the mice were anesthetized with intramuscular ketamine (100 mg/kg) and acepromazine (2.5 mg/kg) and the heart was perfused via the left ventricle with 25 mL phosphate buffered saline (PBS) containing heparin (10 U/mL) followed by 100 mL of 4% paraformaldehyde (PFA) in PBS at pH 7.4 as described by Fernagut et al. (Fernagut et al. (2002) Neuroscience, 114: 1005-1017; Fernagut et al. (2004) Exp Neurol., 185: 47-62). […]
as §1

[5] = LDL receptor null mice, Western diet 6 weeks, 300 μg/mL in drinking water, Mean±SEM

| Compound | acetylcholine vasorelaxation of facial artery rings [1] | HDL-cholesterol (apoe null mice) | atherosclerosis (apoe null mice) | plasma apoA-I levels (apoe null mice) | vasoreactivity of facial arteries (mouse facial artery) | brain arteriolar wall thickness [2] | lumen diameters of the brain arterioles [2] | ratio of wall to lumen diameter [2] | difference in plasma total cholesterol, LDL-cholesterol, HDL-cholesterol or triglycerides ([3]; D-4F compared to scrambled D-4F) | HDL cholesterol concentration [3, 5] | LDL cholesterol concentration [3, 5] | Triglycerides [3, 5] | plasma total cholesterol concentration [3, 5] | performance in the T-maze / T-CAT (spatial memory) (LDL receptor null mice; LDL receptor null mice, Western diet, oral treatment) | time to complete the 15 trials (LDL receptor null mice; LDL receptor null mice, Western diet, oral treatment, difference not statistically significant) | performance in the T-maze / T-CAT (spatial memory) (LDL receptor null mice; LDL receptor null mice, Western diet, oral treatment, listed as D4F) | number of spontaneous alternations in the T-maze test (LDL receptor null mice; LDLR−/− mice, Western diet six weeks, 300 μg/mL in drinking water) | LDL lipid hydroperoxides (LDL lipid hydroperoxides) | brain arteriolar wall smooth muscle α-actin content [4] |
| --- | --- | --- | --- | --- | --- | --- | --- | --- | --- | --- | --- | --- | --- | --- | --- | --- | --- | --- | --- |
| CCCCCCCCCCCCCC(=O)OCC(COP(=O)([O-])OCC[N+](C)(C)C)OC(=O)CCCCCCCCCCCCC (racemic) [DMPC, 1,2-ditetradecanoyl-rac-glycerol-3-phosphocholine] | significant improvement; also recorded: improves | increase | prevention and regression | increase |  |  |  |  |  |  |  |  |  |  |  |  |  |  |  |
| Ac-D-W-F-K-A-F-Y-D-K-V-A-E-K-F-K-E-A-F-NH2 [4F] (Ac-DWFKAFYDKVAEKFKEAF-NH2) [Peptide 4F] |  |  |  |  | dramatically improved |  |  |  |  |  |  |  |  |  |  |  |  |  |  |
| Ac-D-W-F-K-A-F-Y-D-K-V-A-E-K-F-K-E-A-F-NH2 [D-4F] (Ac-[dD][dW][dF][dK][dA][dF][dY][dD][dK][dV][dA][dE][dK][dF][dK][dE][dA][dF]-NH2) [Peptide D-4F, apoA-I mimetic peptide] |  |  |  |  | improved | decreased; also recorded: reduced | no difference | significantly less | no significant difference | 86 ± 6 mg/dL | 924 ± 76 mg/dL | 330 ± 25 mg/dL | 1,076±75 mg/dL | significantly improved | 548 ± 37 s | improvement | significantly improved | decrease | significantly reduced |
